Source: DBAASP
In brackets after ≈: the same amount, converted by molar mass. Blank lines part the entries; values can stand above or below the compound they belong to.

Assays:
Assay in all cases: ≥ marks a high value that may be exact or a test limit, other limits are often not marked, values filed in µg/mL are converted to µM
[1] = tested on: Bacillus megaterium CICC 10448
[2] = tested on: Pseudomonas aeruginosa CICC 21636
[3] = tested on: Escherichia coli CICC 10302
[4] = tested on: Staphylococcus aureus CICC 10306
[5] = tested on: Staphylococcus aureus CICC 10384
[6] = tested on: Serratia marcescens ATCC 4112
[7] = tested on: Enterobacter cloacae CICC 21539
[8] = tested on: Listeria innocua CICC 10417
[9] = tested on: Escherichia coli CICC 10300
[10] = tested on: Salmonella enterica subsp. enterica serovar Paratyphi B CICC 10437
[11] = tested on: Escherichia coli CGMCC 3373
[12] = tested on: Alcaligenes faecalis ATCC 8750
[13] = tested on: Escherichia coli CICC 10293
[14] = tested on: Bacillus subtilis CICC 10034
[15] = tested on: Proteus vulgaris
[16] = tested on: Staphylococcus aureus
[17] = tested on: Escherichia coli O157:H7 ATCC 43895
[18] = tested on: Salmonella typhimurium
[19] = tested on: Saccharomyces cerevisiae
[20] = tested on: Bacillus subtilis
[21] = tested on: Fusarium verticillioides
[22] = tested on: Staphylococcus epidermidis
[23] = tested on: Aspergillus fumigatus KCTC 6145
[24] = tested on: Candida albicans KCTC 7270
[25] = tested on: Trichosporon beigelii
[26] = tested on: Botrytis cinerea
[27] = tested on: Pseudomonas aeruginosa
[28] = tested on: Aspergillus flavus KCTC 9471
[29] = tested on: Listeria monocytogenes KCTC 3710
[30] = tested on: Escherichia coli
[31] = tested on: Staphylococcus aureus ATCC 25923
[32] = tested on: Candida albicans NCTC 3179
[33] = tested on: Escherichia coli ATCC 25922
[34] = tested on: Escherichia coli ATCC 35218
[35] = tested on: Salmonella enterica subsp. enterica serovar Typhimurium ATCC 14028
[36] = tested on: Salmonella enterica subsp. enterica serovar Typhi Vi+
[37] = tested on: Escherichia coli ATCC 11775
[38] = tested on: Staphylococcus aureus ATCC 6538P
[39] = tested on: Staphylococcus aureus SR1550
[40] = tested on: Escherichia coli K-12 594
[41] = tested on: Listeria monocytogenes ATCC 19114
[42] = tested on: Bacillus cereus AS1.1846
[43] = tested on: Escherichia coli K-12
[44] = tested on: Pseudomonas aeruginosa PAO1
[45] = tested on: Pseudomonas aeruginosa PA-W1
[46] = tested on: Pseudomonas aeruginosa PA-W14
[47] = tested on: Staphylococcus aureus NCTC 8325-4
[48] = tested on: Klebsiella pneumoniae

Structure (SMILES): CC[C@H](C)[C@H](NC(=O)[C@H](C)N)C(=O)NCC(=O)N[C@@H](Cc1cnc[nH]1)C(=O)N[C@@H](CS)C(=O)N[C@@H](CC(C)C)C(=O)NCC(=O)N[C@@H](C)C(=O)N[C@H](C(=O)N[C@@H](CC(C)C)C(=O)O)[C@@H](C)O [AIGHCLGATL]
MIC [1]: 8.38 µM | MIC [2]: 4.19 µM | MIC [3]: 8.38 µM | MIC [4]: ≥ 33.5 µM | MIC [5]: ≥ 33.5 µM | MIC [6]: 8.38 µM | MIC [7]: 4.19 µM | MIC [8]: ≥ 33.5 µM | MIC [9]: 8.38 µM | MIC [10]: 8.38 µM | MIC [11]: 8.38 µM | MIC [12]: 8.38 µM | MIC [13]: 8.38 µM | MIC [14]: ≥ 33.5 µM

Structure (SMILES): CC[C@H](C)[C@H](NC(=O)[C@H](CCCCN)NC(=O)[C@H](CO)NC(=O)[C@H](Cc1ccccc1)NC(=O)[C@H](CC(C)C)NC(=O)[C@H](CCCCN)NC(=O)[C@H](CCC(=O)O)NC(=O)[C@H](CC(C)C)NC(=O)[C@H](CCCN=C(N)N)NC(=O)[C@H](CCCCN)NC(=O)[C@H](Cc1ccccc1)NC(=O)[C@@H](NC(=O)[C@H](CCCCN)NC(=O)[C@H](CCCCN)NC(=O)[C@H](C)N)C(C)C)C(=O)N[C@@H](CCC(N)=O)C(=O)N[C@@H](CC(N)=O)C(=O)N[C@@H](Cc1c[nH]c2ccccc12)C(=O)N[C@@H](CCCCN)C(N)=O [AKKVFKRLEKLFSKIQNWK]
MIC [15]: 3.13 µM (≈ 7.48 µg/mL) | MIC [16]: 3.13 µM (≈ 7.48 µg/mL) | MIC [17]: 6.25 µM (≈ 14.9 µg/mL) | MIC [18]: 0.39 µM (≈ 0.932 µg/mL) | MIC [19]: 25 µM (≈ 59.8 µg/mL) | MIC [20]: 1.56 µM (≈ 3.73 µg/mL) | MIC [21]: 12.5 µM (≈ 29.9 µg/mL) | MIC [22]: 3.13 µM (≈ 7.48 µg/mL) | MIC [23]: ≥ 50 µM | MIC [24]: 25 µM (≈ 59.8 µg/mL) | MIC [25]: 1.56 µM (≈ 3.73 µg/mL) | MIC [26]: 6.25 µM (≈ 14.9 µg/mL) | MIC [27]: 3.13 µM (≈ 7.48 µg/mL) | MIC [28]: ≥ 50 µM | MIC [29]: 0.78 µM (≈ 1.86 µg/mL) | MIC [30]: 0.78 µM (≈ 1.86 µg/mL)

Structure (SMILES): CC(C)C[C@H](NC(=O)[C@H](CC(C)C)NC(=O)[C@H](CC(C)C)NC(=O)[C@H](CC(C)C)NC(=O)[C@H](CC(C)C)NC(=O)[C@@H](N)CCCCN)C(=O)N[C@@H](CCCCN)C(N)=O [KLLLLLK]
MIC [38]: 19 µM (≈ 16 µg/mL) | MIC [39]: ≥ 41.7 µM | MIC [40]: 29.8 µM (≈ 25 µg/mL)

Structure (SMILES): NCCCC[C@H](NC(=O)[C@H](CCCCN)NC(=O)[C@H](Cc1c[nH]c2ccccc12)NC(=O)[C@H](Cc1c[nH]c2ccccc12)NC(=O)[C@H](CCCCN)NC(=O)[C@H](CCCCN)NC(=O)[C@H](Cc1c[nH]c2ccccc12)NC(=O)[C@H](Cc1c[nH]c2ccccc12)NC(=O)[C@H](CCCCN)NC(=O)[C@H](CCCCN)NC(=O)[C@@H](N)Cc1c[nH]c2ccccc12)C(=O)N[C@@H](Cc1c[nH]c2ccccc12)C(N)=O [WKKWWKKWWKKW]
MIC [16]: 7.81 µM (≈ 14.9 µg/mL) | MIC [43]: 15.6 µM (≈ 29.7 µg/mL) | MIC [44]: 15.6 µM (≈ 29.7 µg/mL) | MIC [45]: 15.6 µM (≈ 29.7 µg/mL) | MIC [46]: 31.3 µM (≈ 59.6 µg/mL) | MIC [47]: 7.81 µM (≈ 14.9 µg/mL) | MIC [48]: 15.6 µM (≈ 29.7 µg/mL)

Results, then the compound that gave them:

MIC [31]: 26.5 µM (≈ 72 µg/mL) | MIC [32]: 25.8 µM (≈ 70 µg/mL) | MIC [33]: 1.25 µM (≈ 3.4 µg/mL)
Structure (SMILES): CC[C@H](C)[C@H](NC(=O)[C@H](CCCCN)NC(=O)[C@@H](NC(=O)[C@@H](NC(=O)[C@H](CO)NC(=O)[C@H](CC(=O)O)NC(=O)[C@@H](NC(=O)[C@H](CC(N)=O)NC(=O)[C@@H](N)CC(=O)O)[C@@H](C)O)C(C)C)C(C)C)C(=O)N[C@@H](CCC(N)=O)C(=O)N[C@@H](CO)C(=O)N[C@@H](Cc1c[nH]c2ccccc12)C(=O)N[C@@H](Cc1ccccc1)C(=O)N[C@@H](CCCN=C(N)N)C(=O)N[C@@H](CCSC)C(=O)N[C@@H](C)C(=O)N[C@H](C(=O)N[C@@H](C)C(=O)N[C@@H](CCCN=C(N)N)C(=O)N[C@@H](CCCCN)C(=O)N[C@@H](CO)C(=O)N[C@@H](Cc1ccc(O)cc1)C(=O)N[C@@H](CC(C)C)C(=O)O)[C@@H](C)O [DNTDSVVKIQSWFRMATARKSYL]

MIC [34]: 0.2 µM (≈ 0.443 µg/mL) | MIC [35]: 0.6 µM (≈ 1.33 µg/mL) | MIC [33]: 0.3 µM (≈ 0.664 µg/mL) | MIC [36]: 0.6 µM (≈ 1.33 µg/mL) | MIC [37]: 0.3 µM (≈ 0.664 µg/mL)
Structure (SMILES): CC[C@H](C)[C@H](NC(=O)[C@@H]1CCCN1C(=O)[C@H](CCCN=C(N)N)NC(=O)[C@@H]1CCCN1C(=O)[C@H](Cc1cnc[nH]1)NC(=O)[C@@H]1CCCN1C(=O)[C@@H]1CCCN1C(=O)[C@@H]1CCCN1C(=O)[C@H](CCCN=C(N)N)NC(=O)[C@@H]1CCCN1C(=O)[C@@H]1CCCN1C(=O)[C@H](Cc1ccc(O)cc1)NC(=O)[C@@H]1CCCN1C(=O)[C@H](CCCN=C(N)N)NC(=O)[C@@H]1CCCN1C(=O)[C@H](CCCCN)NC(=O)CN)C(=O)N[C@@H](CCCN=C(N)N)C(=O)N[C@H](C(=O)O)C(C)C [GKPRPYPPRPPPHPRPIRV]

MIC [41]: 16.4 µM (≈ 16 µg/mL) | MIC [42]: 16.4 µM (≈ 16 µg/mL)
Structure (SMILES): CC(C)[C@H](N)C(=O)N[C@@H](CO)C(=O)NCC(=O)N1CCC[C@H]1C(=O)N[C@@H](C)C(=O)NCC(=O)N1CCC[C@H]1C(=O)N1CCC[C@H]1C(=O)NCC(=O)N[C@H](C(=O)N[C@@H](Cc1cnc[nH]1)C(=O)O)[C@@H](C)O [VSGPAGPPGTH]
